This is an account of results in US6867192B1, “Compounds useful in the treatment of inflammatory diseases” (priority 1998, dated 2005).

The IC50 is the point on the concentration scale where inhibition reaches its midpoint. High values mean a need for much substance, low ones inhibition by little substance.

Each structure is given as a SMILES string.

This test addresses T1, integrin α4β7, expressed on the RPMI 8866 (human B lymphoid cell line) cell membrane with MAdCAM-1 (Homo sapiens, UniProt P13612+P26010).
T1 construct: integrin α4β7, expressed on the RPMI 8866 (human B lymphoid cell line) cell membrane; endogenous in cells; host or cells: RPMI 8866 cells (integrin). zzMAdCAM-1 was made in house in baculovirus-infected Spodoptera frugiperda cells
T1 sequence (P13612 34-1032): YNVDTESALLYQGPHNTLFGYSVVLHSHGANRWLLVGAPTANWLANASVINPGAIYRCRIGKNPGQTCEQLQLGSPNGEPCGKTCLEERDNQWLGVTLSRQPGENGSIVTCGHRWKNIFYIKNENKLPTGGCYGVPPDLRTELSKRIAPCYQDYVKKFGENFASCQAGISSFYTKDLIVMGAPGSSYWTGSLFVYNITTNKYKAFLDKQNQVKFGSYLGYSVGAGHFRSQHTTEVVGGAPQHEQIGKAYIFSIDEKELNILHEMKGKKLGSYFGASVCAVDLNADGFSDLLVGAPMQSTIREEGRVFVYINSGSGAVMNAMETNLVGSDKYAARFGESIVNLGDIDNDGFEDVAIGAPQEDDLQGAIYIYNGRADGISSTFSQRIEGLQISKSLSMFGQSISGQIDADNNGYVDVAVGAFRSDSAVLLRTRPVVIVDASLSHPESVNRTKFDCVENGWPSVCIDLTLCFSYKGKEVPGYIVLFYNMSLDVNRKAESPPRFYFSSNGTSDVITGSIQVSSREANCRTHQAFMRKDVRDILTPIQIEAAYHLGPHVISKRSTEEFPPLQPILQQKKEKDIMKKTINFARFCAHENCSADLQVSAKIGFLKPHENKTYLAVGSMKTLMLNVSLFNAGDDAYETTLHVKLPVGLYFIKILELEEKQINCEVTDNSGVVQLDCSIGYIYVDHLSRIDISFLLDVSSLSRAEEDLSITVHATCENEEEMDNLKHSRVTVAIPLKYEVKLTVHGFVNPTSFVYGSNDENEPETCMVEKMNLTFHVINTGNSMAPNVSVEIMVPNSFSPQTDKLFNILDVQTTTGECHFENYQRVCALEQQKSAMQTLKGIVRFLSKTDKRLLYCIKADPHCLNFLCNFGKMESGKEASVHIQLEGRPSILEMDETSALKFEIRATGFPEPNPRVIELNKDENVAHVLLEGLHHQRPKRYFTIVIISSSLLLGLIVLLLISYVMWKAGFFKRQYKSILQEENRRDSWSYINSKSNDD
T1 sequence (P26010 20-798): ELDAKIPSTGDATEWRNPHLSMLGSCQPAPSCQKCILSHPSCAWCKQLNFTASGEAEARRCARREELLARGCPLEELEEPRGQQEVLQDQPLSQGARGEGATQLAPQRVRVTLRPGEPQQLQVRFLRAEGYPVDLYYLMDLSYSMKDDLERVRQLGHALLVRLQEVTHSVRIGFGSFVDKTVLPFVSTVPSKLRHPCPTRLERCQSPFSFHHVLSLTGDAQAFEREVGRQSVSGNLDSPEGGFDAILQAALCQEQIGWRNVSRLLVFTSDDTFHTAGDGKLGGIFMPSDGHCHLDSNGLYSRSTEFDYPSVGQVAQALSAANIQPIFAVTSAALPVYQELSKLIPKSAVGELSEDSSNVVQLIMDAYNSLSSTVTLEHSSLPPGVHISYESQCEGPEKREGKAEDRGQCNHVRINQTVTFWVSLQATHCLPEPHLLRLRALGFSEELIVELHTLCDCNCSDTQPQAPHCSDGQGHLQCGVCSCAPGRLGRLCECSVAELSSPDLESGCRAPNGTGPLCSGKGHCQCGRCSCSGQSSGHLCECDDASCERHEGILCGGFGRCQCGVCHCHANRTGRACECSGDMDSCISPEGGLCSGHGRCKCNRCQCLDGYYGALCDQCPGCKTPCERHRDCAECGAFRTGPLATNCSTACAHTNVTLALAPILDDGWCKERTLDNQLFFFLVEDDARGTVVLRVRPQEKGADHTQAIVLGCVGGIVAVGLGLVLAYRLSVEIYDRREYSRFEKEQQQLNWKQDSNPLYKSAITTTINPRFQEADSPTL
Description: RPMI 8866/MAdCAM-1 adhesion assay. It is filed as cell-based. The conditions noted are these: RPMI 8866 cell adhesion to MAdCAM-1, 1 mM MnCl2; mean of n experiments. As to the method: (4) RPMI 8866/MAdCAM-1 Adhesion Assay
This assay was used to investigate the interaction of the integrin α4β7, expressed on the RPMI 8866 (human B lymphoid cell line) cell membrane with MAdCAM-1. Polystyrene 96-well microtitre plates were coated with human immunoglobulin G (IgG; Sigma Chemicals, UK, Product No. 14506) at a concentration of 0.05 mg ml^−1 in bicarbonate buffer (36 mM NaHCO3 and 22 mM Na2CO3, prepared in Dulbecco's phosphate buffered saline at pH 9.8 (PBS); Sigma Chemicals, UK, Product No. 14190-094) for 2 hours at 37° C. This solution was then aspirated and the plates were washed twice with PBS.
MAdCAM-1 was prepared by cloning its constituent domains, under the control of a polyhedrin promoter, into a baculovirus expression system with a zz (Protein A) tag. The amplified baculovirus containing zzMAdCAM-1 was used to infect Spodoptera frugiperda cells growing in suspension in SF900II medium supplemented with 5% foetal calf serum. The cells were infected at a multiplicity of infection of 1 and harvested 48 hours later by centrifugation. Protease inhibitors were added and the culture supernatant was clarified either by filtration through a 0.2 μm filter or by centrifugation. The zzMAdCAM-1 was then purified from this clarified medium using an IgG agarose column, equilibrated with either 20 mM sodium phosphate pH 7.2 alone or in the presence of 0.5M sodium chloride. Elution of zzMAdCAM-1 from the column was mediated using 3M ammonium thiocyanate. The sample was then dialysed thoroughly, using 20 mM sodium phosphate pH 7.2, to remove the ammonium thiocyanate. The purified zzMAdCAM-1 was then concentrated to a small volume (Amicon stirred cell concentrators) until a concentration of 0.5 mg ml^−1 was obtained, calculated using the extinction coefficient value.
This solution of zzMAdCAM-1 was diluted 1:2500 and then incubated overnight at 4° C. in the IgG coated microtitre plates with 3% bovine serum albumin (BSA) in PBS, followed by aspiration and two further washes with PBS. A concentration of the RPMI 8866 cells (3×10^6 cells ml^−1), grown in cell media RPMI 1640 (HyClone Ltd, Product No. B-9106-L) supplemented with 10% heat inactivated foetal calf serum (FCS; Gibco BRL, Product No. 10099-075) and 2 mM L-glutamine, were labelled with 10 μM of the fluorescent dye, 2′, 7′-bis(2-carboxyethyl)-5-(e6)-carboxyfluorescein acetoxymethyl ester (BCECF-AM; Molecular Probes Inc. Product No. B-1150) at 37° C. for 10 minutes. The excess dye was then removed by centrifugation at 500×g for 5 minutes and the cells were resuspended at a concentration of 6×10^6 cells ml^−1 in Hank's balanced salt solution (HBSS; Gibco BRL, Product No. 1419D-094).
Equal volumes of compounds (dissolved in an appropriate solvent and diluted in HBSS containing 1 mM MnCl2) and the labelled RPMI 8866 cells, were added to the MAdCAM-1 coated plates and adhesion was allowed to proceed for 30 minutes at 37° C. Non, or loosely adhered cells, were removed by inversion of the plate and blotted with tissue paper. Two washes with PBS and further blotting were then performed, before the addition of 2% detergent (Triton-X®; Sigma Chemicals UK, Product No. X100). Counting was undertaken in a Wallac Victor™ Fluorimeter, where low fluorescence values were indicative of compounds which had inhibited adhesion. All samples were assayed in singlicate and the following four parameter curve fit, shown by Equation (I) (above) was applied. Wherein the maximum and minimum values are those compared to adhesion in the absence of compound and in the presence of the dipotassium salt of 2 mM EDTA; Sigma Chemicals, UK, Product No. ED2P). Data is presented as the mean pIC50 with the standard error of the mean of n experiments.
The compound `CC(C)C[C@H](NC(=O)COc1ccccc1I)C(=O)N[C@@H](Cc1ccc(OC(=O)N2CCOCC2)cc1)C(=O)O` [Example 23, (2S)-2-[((2S)-2-{[2-(2-Iodophenoxy)acetyl]amino}-4-methylpentanoyl)amino]-3-{4-[(4-morpholinylcarbonyl)oxy]phenyl}propanoic acid] had an IC50 of 63.1 nM.

As for `CC(C)C[C@H](NC(=O)c1cccc2c1oc1ccccc12)C(=O)N[C@@H](Cc1ccc(OC(=O)N2CCC(C(N)=O)CC2)cc1)C(=O)O` [Example 28, (2S)-3-[4-({[4-(Aminocarbonyl)-1-piperidinyl]carbonyl}oxy)phenyl]-2-({(2S)-2-[(dibenzo[b,d]furan-4-ylcarbonyl)amino]-4-methylpentanoyl}amino)propanoic acid], inhibition was half-maximal at 126 nM (IC50).

In turn, `CC(=O)N1CCN(C(=O)Oc2ccc(C[C@H](NC(=O)[C@H](CC(C)C)NC(=O)COc3ccccc3C)C(=O)O)cc2)CC1` [Example 17, (2S)-3-(4-{[(4-Acetyl-1-piperazinyl)carbonyl]oxy}phenyl)-2-[((2S)-4-methyl-2-{[2-(2-methylphenoxy)acetyl]amino}pentanoyl)amino]propanoic acid] had an IC50 of 158 nM.

`CC(C)C[C@H](NC(=O)COc1ccccc1C(C)(C)C)C(=O)N[C@@H](Cc1ccc(OC(=O)N2CCN(C(=O)c3ccccc3)CC2)cc1)C(=O)O` [Example 20, (2S)-3-(4-{[(4-Benzoyl-1-piperazinyl)carbonyl]oxy}phenyl)-2-{[(2S)-2-({2-[2-(tert-butyl)phenoxy]acetyl}amino)-4-methylpentanoyl]amino}propanoic acid]: the IC50 is 200 nM.

On to `CC(C)C[C@H](NC(=O)COc1ccccc1C(C)(C)C)C(=O)N[C@@H](Cc1ccc(OC(=O)N2CCOCC2)cc1)C(=O)O` [Example 24, (2S)-2-{[(2S)-2-({2-[2-(Tert-butyl)phenoxy]acetyl}amino)-4-methylpentanoyl]amino}-3-{4-[(4-morpholinylcarbonyl)oxy]phenyl}propanoic acid], for which the IC50 is 251 nM.

For the compound `CC(=O)N1CCN(C(=O)Oc2ccc(C[C@H](NC(=O)[C@H](CC(C)C)NC(=O)COc3ccccc3C(C)(C)C)C(=O)O)cc2)CC1` [Example 16, (2S)-3-(4-{[(4-Acetyl-1-piperazinyl)carbonyl]oxy}phenyl)-2-{[(2S)-2-({2-[2-(tert-butyl)phenoxy]acetyl}amino)-4-methylpentanoyl]amino}propanoic acid], inhibition was half-maximal at 158 nM (IC50).

Compound `Cc1ccccc1OCC(=O)N[C@@H](CC(C)C)C(=O)N[C@@H](Cc1ccc(OC(=O)N2CCN(C(=O)c3ccccc3)CC2)cc1)C(=O)O` [Example 21, (2S)-3-(4-{[(4-Benzoyl-1-piperazinyl)carbonyl]oxy}phenyl)-2-[((2S)-4-methyl-2-{[2-(2-methylphenoxy)acetyl]amino}pentanoyl)amino]propanoic acid] had an IC50 of 200 nM.

Consider `Cc1ccccc1OCC(=O)N[C@@H](CC(C)C)C(=O)N[C@@H](Cc1ccc(OC(=O)N2CCC(C(N)=O)CC2)cc1)C(=O)O` [Example 27, (2S)-3-[4-({[4-(Aminocarbonyl)-1-piperidinyl]carbonyl}oxy)phenyl]-2-[((2S)-4-methyl-2-{[2-(2-methylphenoxy)acetyl]amino}pentanoyl)amino]propanoic acid], for which it took 31.6 nM to reach half-maximal inhibition (IC50).
